Measurements taken from ChEMBL document CHEMBL5465560, “Selectivity Literature for EUbOPEN Chemogenomic Library” (2024).
Each block holds one molecule with its values, some of them ahead of it.

Tests used:
[1] = molecular target: Interferon-induced, double-stranded RNA-activated protein kinase (Homo sapiens) (UniProt P19525); assay: Selectivity interaction (KinomeScan (DiscoverX)) EUB0001079a EIF2AK2; details: at 1 µM
[2] = molecular target: G protein-coupled receptor kinase 6 (Homo sapiens) (UniProt P43250); assay: Selectivity interaction (ActivX KiNativ screen (ex vivo kinase selectivity in human PBMCs)) EUB0001619a GRK6; format: cell-based; details: PBMC, at 1 µM
Chain of G protein-coupled receptor kinase 6 (Homo sapiens) (P43250 whole entry, looked up): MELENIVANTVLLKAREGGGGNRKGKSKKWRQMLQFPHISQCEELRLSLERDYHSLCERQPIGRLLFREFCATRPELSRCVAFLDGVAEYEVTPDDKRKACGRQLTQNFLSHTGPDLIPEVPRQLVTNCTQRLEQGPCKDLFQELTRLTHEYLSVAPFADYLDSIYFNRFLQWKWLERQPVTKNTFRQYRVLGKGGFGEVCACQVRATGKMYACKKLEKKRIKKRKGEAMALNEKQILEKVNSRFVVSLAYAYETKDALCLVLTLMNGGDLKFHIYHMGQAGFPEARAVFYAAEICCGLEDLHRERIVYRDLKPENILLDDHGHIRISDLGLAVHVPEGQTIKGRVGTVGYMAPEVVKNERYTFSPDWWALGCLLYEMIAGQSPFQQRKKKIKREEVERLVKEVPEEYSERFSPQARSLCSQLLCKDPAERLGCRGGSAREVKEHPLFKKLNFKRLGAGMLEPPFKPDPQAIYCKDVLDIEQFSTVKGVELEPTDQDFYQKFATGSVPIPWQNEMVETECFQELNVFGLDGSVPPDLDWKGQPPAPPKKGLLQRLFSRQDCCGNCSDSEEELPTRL

[3] = molecular target: T1, Serine/threonine-protein kinase ULK1 (Homo sapiens) (UniProt O75385); assay: Selectivity interaction (Kinase panel (DSF assay)) EUB0001558a ULK1
T1 sequence (whole entry): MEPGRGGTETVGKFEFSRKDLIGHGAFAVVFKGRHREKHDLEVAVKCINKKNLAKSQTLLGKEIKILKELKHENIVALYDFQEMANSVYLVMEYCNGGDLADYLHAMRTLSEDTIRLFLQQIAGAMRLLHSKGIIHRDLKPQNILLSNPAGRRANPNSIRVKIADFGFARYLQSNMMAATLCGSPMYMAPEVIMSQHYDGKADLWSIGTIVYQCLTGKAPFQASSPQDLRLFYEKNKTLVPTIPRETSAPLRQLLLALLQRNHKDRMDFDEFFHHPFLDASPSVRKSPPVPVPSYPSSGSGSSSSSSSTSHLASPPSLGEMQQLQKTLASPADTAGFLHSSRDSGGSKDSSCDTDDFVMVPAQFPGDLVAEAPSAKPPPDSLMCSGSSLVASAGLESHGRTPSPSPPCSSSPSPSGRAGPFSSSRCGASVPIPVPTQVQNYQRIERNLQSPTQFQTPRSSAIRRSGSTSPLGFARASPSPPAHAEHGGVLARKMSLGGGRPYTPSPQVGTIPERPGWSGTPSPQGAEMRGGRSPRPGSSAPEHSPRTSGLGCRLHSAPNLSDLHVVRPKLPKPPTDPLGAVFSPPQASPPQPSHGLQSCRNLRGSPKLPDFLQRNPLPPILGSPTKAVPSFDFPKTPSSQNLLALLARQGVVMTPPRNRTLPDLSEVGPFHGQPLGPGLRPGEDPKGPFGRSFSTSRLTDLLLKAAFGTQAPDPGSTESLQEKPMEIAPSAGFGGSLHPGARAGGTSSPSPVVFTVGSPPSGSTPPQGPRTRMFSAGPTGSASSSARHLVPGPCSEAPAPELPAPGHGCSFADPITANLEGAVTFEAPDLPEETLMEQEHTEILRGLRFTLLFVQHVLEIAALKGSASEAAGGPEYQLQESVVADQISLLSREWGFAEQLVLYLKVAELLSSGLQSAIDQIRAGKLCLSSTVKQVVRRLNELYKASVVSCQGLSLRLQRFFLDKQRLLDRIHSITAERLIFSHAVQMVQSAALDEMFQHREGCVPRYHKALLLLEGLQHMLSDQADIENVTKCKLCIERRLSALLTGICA

[4] = molecular target: T2, Beta-adrenergic receptor kinase 1 (Homo sapiens) (UniProt P25098); assay: Selectivity interaction (Kinase panel (Invitrogen)) EUB0000639a ADRBK1; details: at 200 nM
T2 sequence (whole entry): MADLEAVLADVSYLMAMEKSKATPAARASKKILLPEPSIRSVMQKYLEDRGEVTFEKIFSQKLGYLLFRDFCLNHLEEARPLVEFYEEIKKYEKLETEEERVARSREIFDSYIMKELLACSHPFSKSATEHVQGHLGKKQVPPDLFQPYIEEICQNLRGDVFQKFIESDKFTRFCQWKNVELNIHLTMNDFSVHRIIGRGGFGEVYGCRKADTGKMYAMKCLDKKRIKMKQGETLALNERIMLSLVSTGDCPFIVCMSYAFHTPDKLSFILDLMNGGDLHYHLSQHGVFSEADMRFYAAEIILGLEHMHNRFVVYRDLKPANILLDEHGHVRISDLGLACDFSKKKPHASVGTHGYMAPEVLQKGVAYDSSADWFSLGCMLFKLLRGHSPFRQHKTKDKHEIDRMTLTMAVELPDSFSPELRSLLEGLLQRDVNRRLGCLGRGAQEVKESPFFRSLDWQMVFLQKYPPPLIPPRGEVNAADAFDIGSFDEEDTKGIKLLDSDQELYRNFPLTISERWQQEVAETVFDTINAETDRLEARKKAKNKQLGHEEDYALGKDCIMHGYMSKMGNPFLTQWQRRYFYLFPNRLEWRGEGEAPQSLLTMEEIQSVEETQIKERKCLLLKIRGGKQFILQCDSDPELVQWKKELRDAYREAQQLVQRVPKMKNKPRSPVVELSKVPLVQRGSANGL

[5] = molecular target: Mast/stem cell growth factor receptor Kit (Homo sapiens, UniProt P10721); assay: Selectivity interaction (Kinase panel (Invitrogen)) EUB0000639a KIT; details: at 200 nM
Chain of Mast/stem cell growth factor receptor Kit (P10721 whole entry): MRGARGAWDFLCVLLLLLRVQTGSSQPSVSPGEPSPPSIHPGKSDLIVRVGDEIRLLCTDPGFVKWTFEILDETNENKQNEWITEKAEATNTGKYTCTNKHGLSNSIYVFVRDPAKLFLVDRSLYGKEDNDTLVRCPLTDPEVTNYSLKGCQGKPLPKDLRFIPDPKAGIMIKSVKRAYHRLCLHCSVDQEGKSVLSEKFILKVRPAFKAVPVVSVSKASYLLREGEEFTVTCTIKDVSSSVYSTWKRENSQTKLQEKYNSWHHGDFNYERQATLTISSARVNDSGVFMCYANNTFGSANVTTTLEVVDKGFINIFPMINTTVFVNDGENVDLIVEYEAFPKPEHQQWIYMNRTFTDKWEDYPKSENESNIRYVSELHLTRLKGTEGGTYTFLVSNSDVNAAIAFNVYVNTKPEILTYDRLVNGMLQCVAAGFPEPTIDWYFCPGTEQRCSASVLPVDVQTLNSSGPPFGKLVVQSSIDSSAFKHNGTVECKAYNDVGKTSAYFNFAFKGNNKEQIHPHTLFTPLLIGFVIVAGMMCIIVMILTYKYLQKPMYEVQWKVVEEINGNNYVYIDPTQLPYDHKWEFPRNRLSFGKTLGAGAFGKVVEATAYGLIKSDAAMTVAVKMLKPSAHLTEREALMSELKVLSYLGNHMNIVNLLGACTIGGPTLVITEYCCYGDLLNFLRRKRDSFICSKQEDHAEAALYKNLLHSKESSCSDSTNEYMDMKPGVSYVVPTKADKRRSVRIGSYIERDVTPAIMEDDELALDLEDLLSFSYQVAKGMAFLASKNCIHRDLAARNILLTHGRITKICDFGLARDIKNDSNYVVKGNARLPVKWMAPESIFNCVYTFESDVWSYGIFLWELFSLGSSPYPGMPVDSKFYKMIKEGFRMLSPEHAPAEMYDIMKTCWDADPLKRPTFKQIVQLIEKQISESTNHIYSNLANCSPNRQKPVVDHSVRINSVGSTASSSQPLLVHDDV

[6] = molecular target: Serine/threonine-protein kinase PLK1 (Homo sapiens, UniProt P53350); assay: Selectivity interaction (ActivX KiNativ screen (kinase selectivity in THP-1 cell lysates)) EUB0000639a PLK1; format: subcellular; details: lysate, at 0.2 µM
Chain of Serine/threonine-protein kinase PLK1 (P53350 whole entry): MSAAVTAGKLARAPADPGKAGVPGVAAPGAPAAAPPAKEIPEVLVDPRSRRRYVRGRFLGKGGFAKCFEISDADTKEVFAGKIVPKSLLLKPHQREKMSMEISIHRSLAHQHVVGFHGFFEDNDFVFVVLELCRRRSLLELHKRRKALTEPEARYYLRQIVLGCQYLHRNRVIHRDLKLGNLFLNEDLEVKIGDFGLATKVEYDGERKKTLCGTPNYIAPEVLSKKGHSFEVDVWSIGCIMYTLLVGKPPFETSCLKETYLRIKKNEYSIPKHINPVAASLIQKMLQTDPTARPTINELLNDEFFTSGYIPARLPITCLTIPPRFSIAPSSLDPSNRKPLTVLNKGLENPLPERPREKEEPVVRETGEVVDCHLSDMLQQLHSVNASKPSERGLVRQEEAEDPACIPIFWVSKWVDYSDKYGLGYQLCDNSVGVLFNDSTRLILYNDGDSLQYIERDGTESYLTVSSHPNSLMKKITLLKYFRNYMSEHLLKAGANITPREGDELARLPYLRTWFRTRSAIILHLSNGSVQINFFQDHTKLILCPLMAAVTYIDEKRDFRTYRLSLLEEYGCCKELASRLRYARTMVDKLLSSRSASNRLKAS

[7] = molecular target: Proto-oncogene tyrosine-protein kinase receptor Ret (Homo sapiens, UniProt P07949)
Chain of Proto-oncogene tyrosine-protein kinase receptor Ret (P07949 whole entry): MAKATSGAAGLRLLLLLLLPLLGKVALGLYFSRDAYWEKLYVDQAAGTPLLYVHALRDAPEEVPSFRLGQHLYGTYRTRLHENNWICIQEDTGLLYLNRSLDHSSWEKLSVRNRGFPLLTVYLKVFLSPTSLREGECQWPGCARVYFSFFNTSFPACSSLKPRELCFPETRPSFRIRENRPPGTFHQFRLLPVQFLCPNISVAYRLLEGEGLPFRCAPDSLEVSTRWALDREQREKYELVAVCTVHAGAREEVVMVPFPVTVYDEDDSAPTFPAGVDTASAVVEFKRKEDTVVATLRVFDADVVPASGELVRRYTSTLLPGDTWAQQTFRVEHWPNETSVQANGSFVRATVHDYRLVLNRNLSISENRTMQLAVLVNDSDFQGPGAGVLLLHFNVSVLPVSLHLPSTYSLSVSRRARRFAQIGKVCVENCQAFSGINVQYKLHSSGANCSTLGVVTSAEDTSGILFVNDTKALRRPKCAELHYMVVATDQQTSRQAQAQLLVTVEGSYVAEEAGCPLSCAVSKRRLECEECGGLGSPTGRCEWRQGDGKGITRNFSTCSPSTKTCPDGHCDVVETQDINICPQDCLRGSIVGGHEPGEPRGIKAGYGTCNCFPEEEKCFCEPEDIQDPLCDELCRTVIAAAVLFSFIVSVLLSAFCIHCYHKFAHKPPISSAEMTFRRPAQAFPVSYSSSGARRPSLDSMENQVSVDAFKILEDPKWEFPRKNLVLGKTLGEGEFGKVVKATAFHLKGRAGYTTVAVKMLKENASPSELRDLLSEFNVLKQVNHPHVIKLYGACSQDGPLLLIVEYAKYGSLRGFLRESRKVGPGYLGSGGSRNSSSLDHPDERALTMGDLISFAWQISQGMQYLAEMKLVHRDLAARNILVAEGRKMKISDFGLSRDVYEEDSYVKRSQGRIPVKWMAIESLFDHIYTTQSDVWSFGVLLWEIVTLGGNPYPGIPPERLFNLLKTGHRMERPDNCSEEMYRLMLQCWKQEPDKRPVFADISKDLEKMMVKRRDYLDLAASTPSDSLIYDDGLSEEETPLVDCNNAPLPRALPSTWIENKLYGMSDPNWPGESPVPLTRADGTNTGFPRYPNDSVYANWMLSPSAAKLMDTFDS

[8] = molecular target: Phosphatidylinositol 4-kinase beta (Homo sapiens, UniProt Q9UBF8); assay: Selectivity interaction (ProQinase) EUB0000171b PI4KB
Chain of Phosphatidylinositol 4-kinase beta (Q9UBF8 2-816 limits assumed): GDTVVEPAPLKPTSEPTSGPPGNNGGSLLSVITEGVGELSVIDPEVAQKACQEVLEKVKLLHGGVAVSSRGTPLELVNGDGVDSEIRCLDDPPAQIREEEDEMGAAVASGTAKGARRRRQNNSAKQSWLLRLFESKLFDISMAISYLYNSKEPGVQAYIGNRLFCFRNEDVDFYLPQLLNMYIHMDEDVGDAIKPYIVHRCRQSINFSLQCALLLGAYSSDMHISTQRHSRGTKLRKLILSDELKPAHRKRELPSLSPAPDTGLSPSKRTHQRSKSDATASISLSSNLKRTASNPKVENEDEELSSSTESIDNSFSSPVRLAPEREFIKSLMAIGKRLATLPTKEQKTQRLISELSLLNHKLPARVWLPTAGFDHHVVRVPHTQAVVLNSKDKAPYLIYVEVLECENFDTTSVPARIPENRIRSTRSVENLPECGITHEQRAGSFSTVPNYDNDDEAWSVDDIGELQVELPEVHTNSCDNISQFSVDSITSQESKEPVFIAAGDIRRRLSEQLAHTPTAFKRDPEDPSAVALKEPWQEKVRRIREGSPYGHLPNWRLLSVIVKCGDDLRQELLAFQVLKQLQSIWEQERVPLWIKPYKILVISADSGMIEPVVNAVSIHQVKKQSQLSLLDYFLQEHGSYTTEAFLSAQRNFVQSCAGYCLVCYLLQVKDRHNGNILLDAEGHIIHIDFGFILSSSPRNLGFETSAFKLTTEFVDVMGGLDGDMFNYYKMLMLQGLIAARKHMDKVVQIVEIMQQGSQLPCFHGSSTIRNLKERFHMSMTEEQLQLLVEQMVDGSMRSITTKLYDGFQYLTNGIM

Chain of Interferon-induced, double-stranded RNA-activated protein kinase (Homo sapiens) (P19525 whole entry): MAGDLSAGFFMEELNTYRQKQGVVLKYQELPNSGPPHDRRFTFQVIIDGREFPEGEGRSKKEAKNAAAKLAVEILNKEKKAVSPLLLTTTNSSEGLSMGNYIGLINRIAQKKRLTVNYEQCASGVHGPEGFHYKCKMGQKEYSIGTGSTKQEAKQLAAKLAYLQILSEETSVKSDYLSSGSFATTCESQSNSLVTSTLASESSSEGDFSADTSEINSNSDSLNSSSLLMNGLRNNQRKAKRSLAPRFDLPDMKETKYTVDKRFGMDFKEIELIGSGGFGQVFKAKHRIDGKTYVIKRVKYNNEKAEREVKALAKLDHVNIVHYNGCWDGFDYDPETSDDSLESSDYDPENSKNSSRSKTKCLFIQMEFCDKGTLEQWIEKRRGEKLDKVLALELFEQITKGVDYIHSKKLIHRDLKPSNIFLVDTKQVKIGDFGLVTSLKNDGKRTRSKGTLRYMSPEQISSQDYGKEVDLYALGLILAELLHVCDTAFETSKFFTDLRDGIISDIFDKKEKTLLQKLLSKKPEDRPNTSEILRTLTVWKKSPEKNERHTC

SMILES: Nc1cnc(N2CCc3cc(S(=O)(=O)Nc4c(F)cc(Cl)cc4F)cc(N4CCCC4=O)c32)nc1 [TP-020n]
- % of control [1]: 41%

SMILES: N#Cc1cccc(-c2c[nH]c3ncnc(N4CCOCC4)c23)c1
- % of inhibition [2]: 11%

SMILES: CC(C)(O)[C@H](F)CN1Cc2cc(NC(=O)c3cnn4cccnc34)c(N3CCOCC3)cc2C1=O
- dTM [3]: 0.5 K

More lines, now with the values ahead:

- % of inhibition [4]: 0.284%
- % of inhibition [5]: 0.275%
- % of inhibition [6]: -0.2%
SMILES: CC[C@@H]1[C@H](F)C(=O)N[C@@H]1COc1nccc2cc(C(N)=O)c(OC)cc12 [ZIMLOVISERTIB]

- IC50 [7]: > 10 µM
SMILES: CCc1cccc(CC)c1NC(=O)c1nn(C)c2c1CCc1cnc(Nc3ccc(C(=O)NC4CCN(C)CC4)cc3OC(F)(F)F)nc1-2

- % of control ([8]; at 1 µM): 101%
- % of control ([8]; at 5 µM): 79%
SMILES: C=CC(=O)Nc1cccc(C(=O)Nc2ccc(Nc3cc(-c4[nH]c(SC)nc4C)ccn3)cc2)c1
